Entries after “also recorded” stand apart in the source; their conditions may differ.
Key:
[1] = test system: trauma-induced heterotopic ossification; assay: Trauma-potentiated (drop-weight) heterotopic ossification model; assay type: in vivo; conditions: WT mice; after three weeks; Tfr2-ECD single dose, palovarotene or ibuprofen daily
Description: For systemic Tfr2-ECD treatment, WT mice were treated every other day with Tfr2-ECD intraperitoneally for two weeks. Mice received 250 μg Tfr2-ECD (10 mg/kg BW) per injection for the first 10 days after BMP-2/matrigel injection into the muscle and 125 μg per injection (5 mg/kg BW) for the remaining time. This experiment was performed once with 8-10 mice per group. Drop-weight HO: This experiment was performed according to Liu et al. with minor modifications^65. Female 10-12-week-old WT mice were anesthetized and placed on a ridge of a plastic container over which the right leg was bent so the femur was lying horizontally. Mice received an injection of 1 μg BMP-2 mixed in 50 μl matrigel. Afterwards, a stainless-steel ball of 16 g (16 mm diameter) was dropped from a distance of 80 cm height onto the quadriceps muscle. Mice either received a single dose of 1 μg Tfr2-ECD, which was co-injected with the BMP-2/matrigel mixture, or palovarotene (Hycultec), which was administered daily by oral gavage. Palovarotene was dissolved in DMSO and diluted 1:4 with corn oil. Mice received palovarotene at a dose of 100 μg/mouse for the first five days and 50 μg/mouse for the remainder of the experiment (days 621). One group of mice received ibuprofen via the drinking water at a dose of […] which was changed every other day^66. […]

[2] = test system: BMP-2-induced heterotopic ossification; assay: BMP-2-induced heterotopic ossification (HO) mouse model; assay type: in vivo, mice; conditions: WT mice; day 8; systemic treatment; Safranin O staining
Description: Male and female C57BL/6 mice are used for the HO model. The HO is triggered by injecting BMP-2 into the muscle (Wosczyna et al. 2012).
All the mice are fed with standard feed and water ad libitum and are kept in groups of five mice per cage. The mice are exposed to a 12-hour light/dark cycle and air cooling to 23° C. (no special pathogen-free room). Enrichment is provided in the form of cardboard houses and bedding material. The mice are randomly divided into the different treatment groups and the assays are subsequently carried out as blind experiments.
The HO is examined by means of treatment using 2.5 μl of a 1 mg/ml recombinant BMP-2 solution (Thermo Fisher Scientific) or 2.5 μl of a 1 mg/ml Tfr2-ECD mixed with 47.5 μl Matrigel (BD Bioscience) at 0° C. For combination treatment, 2.5 of a 1 mg/ml recombinant BMP-2 solution is mixed with 2.5 μl of a 1 mg/ml Tfr2-ECD and 45 μl Matrigel. The Matrigel mixtures are injected into the musculus tibialis anterior of 10-week-old female wild-type mice. The legs are examined after two weeks.
The bone microarchitecture is analyzed using vivaCT40 (Scanco Medical, Switzerland). The entire lower leg bones are measured at a resolution of 10.5 μm using X-rays of 70 kVp, […] and at an integration time of 200 s. Predefined scripts from Scanco are used to analyze the bone (#1). […]

Tfr2-ECD = molecular target: T1, Tfr2-ECD (Mus musculus, UniProt Q9JKX3); assay: SPR binding of holo-Tf and BMP receptors to Tfr2-ECD immobilized on the sensor chip; parameters: species or system murine; conditions: 200 nM BMP receptors; binding level normalized to molecular weight
T1 construct: full-length extracellular domain (ECD, aa 103-798) of murine Tfr2; His (N); MBP (N); c3 (protease site between MBP and ECD) (N); made in house; host or cells: Sf9 insect cells (baculovirus, pOCC211-Tfr2-ECD)
T1 sequence (Q9JKX3 103-798): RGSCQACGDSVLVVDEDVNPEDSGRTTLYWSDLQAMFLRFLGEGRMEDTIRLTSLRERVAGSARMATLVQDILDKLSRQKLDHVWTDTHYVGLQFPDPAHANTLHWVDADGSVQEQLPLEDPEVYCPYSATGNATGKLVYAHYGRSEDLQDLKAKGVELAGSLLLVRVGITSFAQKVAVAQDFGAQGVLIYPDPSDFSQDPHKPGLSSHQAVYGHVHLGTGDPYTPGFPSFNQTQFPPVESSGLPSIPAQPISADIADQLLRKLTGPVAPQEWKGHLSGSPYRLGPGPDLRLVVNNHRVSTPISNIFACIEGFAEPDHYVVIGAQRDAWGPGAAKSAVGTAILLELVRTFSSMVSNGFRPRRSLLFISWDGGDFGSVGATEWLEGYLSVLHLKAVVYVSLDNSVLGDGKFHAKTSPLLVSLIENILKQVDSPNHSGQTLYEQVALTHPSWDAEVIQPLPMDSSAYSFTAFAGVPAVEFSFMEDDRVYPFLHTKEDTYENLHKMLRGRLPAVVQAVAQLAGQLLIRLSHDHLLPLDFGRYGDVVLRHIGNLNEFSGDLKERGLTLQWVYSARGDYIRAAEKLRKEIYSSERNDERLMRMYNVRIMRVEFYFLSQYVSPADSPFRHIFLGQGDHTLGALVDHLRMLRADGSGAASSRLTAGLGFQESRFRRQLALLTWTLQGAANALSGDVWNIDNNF
Description: For this purpose, Tfr2-ECD is immobilized on a Series S Sensor Chip C1 (GE Healthcare), by means of coupling the amino groups at 25° C. The carboxyl groups on the chip surface are activated for 7 minutes using a mixture of 196 mM 1-ethyl-3-(3-dimethylaminopropyl) carbodiimide-hydrochloride and 50 mM n-hydroxysuccinimide at a flow rate of 10 μl/min. Subsequently, 5 μg/ml Tfr2-ECD, diluted with sodium acetate buffer (pH 4.5), is injected at a flow rate of 5 μl/min up to a relative occupancy of 200 RU. Non-reacted groups are inactivated by injecting 1 M thanolamine-HCl (pH 8.5) for 7 minutes at a flow rate of 10 μl/min. In order to prepare a reference surface, the same procedure is carried out but without Tfr2-ECD being injected.
The binding assays are carried out at 37° C. at a flow rate of 30 μl/min. Each analyte is diluted by a running buffer (HBS-P, pH 7.4 together with 50 nM FeCl3). […] The values of the binding level are read out, relative to the baseline, 10 s before the end of the injection and are corrected with respect to the molar mass. […] The binding parameters are determined using the Biacore™ T100 evaluation software 2.03. […]
For binding analysis, an injection of analyte for 240 s or 300 s over a Tfr2-ECD surface was followed by 1000 s dissociation. The values of the binding levels were recorded from referenced signals 10 s before the end of injection relative to baseline response. […]

Binding response of BMPRs to Tfr2-ECD compared with BMPs (Tfr2-ECD)	Compound	New bone formation in the muscle (trauma-induced HO, μCT) [1]	Number of chondrocytes (chondrogenic phase of HO) [2]	Production of cartilage (chondrogenic phase of HO) [2]
	CC(C)Cc1ccc(C(C)C(=O)O)cc1 (centres unmarked) [ibuprofen]	did not prevent; also recorded: did not significantly reduce		
	CC1(C)CCC(C)(C)c2cc(Cn3cccn3)c(/C=C/c3ccc(C(=O)O)cc3)cc21 [palovarotene, reference compound]	comparable	suppressed	suppressed
weaker than BMPs	BMPR-IA: BMP receptor type IA (R&D Systems), positive control in the BMP-2 ELISA			

Reference: patent US20240199755A1, “ANTAGONISTS AND AGONISTS OF THE TRANSFERRIN RECEPTOR-2 FOR USE IN THE TREATMENT OF DISEASES OF THE BONE” (Kymab Limited, priority 2018, published 2024)
